# Experiments:
# [1] = test system: H9 (acute lymphoblastic leukemia, ALL); test: MTT leukemia cell growth inhibition, 72 h; assay type: cell-based, human; conditions: Homo sapiens, H9, 72 h; for IC50: read-out: IC50; for IC90: read-out: IC90
# From the text: (§1) Leukemia cell lines: K562/adr (drug-resistant, chronic myeloid leukemia, CML), NB4 (acute promyelocytic leukemia, AML), Kasumi-1 (acute myeloid leukemia M2 type, AML-M2), Jurkat (acute lymphoblastic leukemia, ALL), all of which are donated by Cancer Research Institute of Zhejiang University, China; and H9 (acute lymphoblastic leukemia, ALL), which is purchased from China Center for Type Culture Collection.
# (§2) Obtaining 6000 well-growing leukemia cells and inoculating them into wells of a 96-well cell culture plate. The culture medium is the 1640 cell culture medium containing 10% fetal bovine serum. After adding the homoharringtonine derivatives of different concentrations and mixing uniformly, placing the plate in a carbon dioxide cell incubator (5% CO2) at 37° C. and incubating for 72 hours. Then the viable cell concentration is determined by the MTT method. In this experiment, the cell viability in control group (not treated with any compound) is set as 100%.
# [2] = test system: Jurkat (acute lymphoblastic leukemia, ALL); test: MTT leukemia cell growth inhibition, 72 h; assay type: cell-based, human; conditions: Homo sapiens; for IC50: read-out: IC50; for IC90: read-out: IC90
# From the text: as §1, §2
# [3] = test system: K562/adr (drug-resistant, chronic myeloid leukemia, CML); test: MTT leukemia cell growth inhibition, 72 h; assay type: cell-based, human; conditions: Homo sapiens, K562/Adr; for IC50: read-out: IC50; for IC90: read-out: IC90
# From the text: as §1, §2
# [4] = test system: Kasumi-1 (acute myeloid leukemia M2 type, AML-M2); test: MTT leukemia cell growth inhibition, 72 h; assay type: cell-based, human; conditions: Homo sapiens, Kasumi-1, 72 h; for IC50: read-out: IC50; for IC90: read-out: IC90
# From the text: as §1, §2
# [5] = test system: NB4 (acute promyelocytic leukemia, AML); test: MTT leukemia cell growth inhibition, 72 h; assay type: cell-based, human; conditions: Homo sapiens, NB4, 72 h; for IC50: read-out: IC50; for IC90: read-out: IC90
# From the text: as §1, §2
# [6] = test system: RPMI8226 (multiple myeloma); test: MTT multiple myeloma cell growth inhibition, 72 h; assay type: cell-based, human; conditions: Homo sapiens, RPMI-8226, RPMI8226, 72 h; for IC50: read-out: IC50; for IC90: read-out: IC90
# Protocol: Multiple myeloma and lymphoma cell lines: RPMI8226 (multiple myeloma), purchased from Fuxiang Bio-tech Co. Ltd., Shanghai, China.
# as §2, with “method.” for “method. In this experiment, the cell viability in control group (not treated with any compound) is set as 100%.”
# A549 (human lung cancer) = test: MTT solid tumor cell growth inhibition, 72 h; assay type: cell-based; conditions: Homo sapiens, A549, 72 h; for IC50: read-out: IC50; for IC90: read-out: IC90
# Protocol: (§3) Human solid tumor cell lines: Hep-2 ([…]), A549 (human lung cancer), CaES-17 (esophageal cancer cell), PC-3 (prostate cancer), CNE (nasopharyngeal carcinoma cell), and SK-OV-3 (ovarian cancer cell), all of which are purchased from China Center For Type Culture Collection; RKO (human colon adenocarcinoma cell), MGC 803 (human gastric cancer cell), MG63 (osteosarcoma) and U87 MG (malignant glioma cell), all of which are purchased from Fuxiang Bio-tech Co. Ltd., Shanghai, China; PANC-1 (pancreatic cancer), Huh7 (human liver cancer cell), Becap37 (human breast cancer cell), and Hela (human cervical cancer cell), all of which are donated by Cancer Research Institute of Zhejiang University, China.
# (§4) Obtaining 4000 well-growing human solid tumor cells and inoculating them into wells of a 96-well cell culture plate. The culture medium is DMEM High Glucose cell culture medium containing 10% fetal bovine serum. The plate is placed in a carbon dioxide cell incubator (5% CO2) at 37° C. and incubating for 24 hours. After adding the homoharringtonine derivatives of different concentration and mixing uniformly, the plate is placed in a carbon dioxide cell incubator (5% CO2) at 37° C. and incubating for 72 hours. Then the viable cell concentration is determined by the MTT method and the cell viability (%) after drug treatment is calculated. In this experiment, the cell viability of control group (not treated with any compound) is set as 100%.
# [7] = test system: Becap37 (human breast cancer cell); test: MTT solid tumor cell growth inhibition, 72 h; assay type: cell-based; conditions: Homo sapiens, Becap37, 72 h; for IC50: read-out: IC50; for IC90: read-out: IC90
# Protocol: as §3, §4
# [8] = test system: Huh7 (human liver cancer cell); test: MTT solid tumor cell growth inhibition, 72 h; assay type: cell-based; conditions: Homo sapiens, Huh-7, Huh7, 72 h; for IC50: read-out: IC50; for IC90: read-out: IC90
# Protocol: as §3, §4
# [9] = test system: MGC 803 (human gastric cancer cell); test: MTT solid tumor cell growth inhibition, 72 h; assay type: cell-based; conditions: Homo sapiens, MGC 803, 72 h; for IC50: read-out: IC50; for IC90: read-out: IC90
# Protocol: as §3, §4
# MG63 (osteosarcoma) = test: MTT solid tumor cell growth inhibition, 72 h; assay type: cell-based, human; conditions: Homo sapiens, MG 63, 72 h; for IC50: read-out: IC50; for IC90: read-out: IC90
# Protocol: as §3, §4
# [10] = test system: PANC-1 (pancreatic cancer); test: MTT solid tumor cell growth inhibition, 72 h; assay type: cell-based, human; conditions: Homo sapiens, PANC-1, 72 h; for IC50: read-out: IC50; for IC90: read-out: IC90
# Protocol: as §3, §4
# [11] = test system: RKO (human colon adenocarcinoma cell); test: MTT solid tumor cell growth inhibition, 72 h; assay type: cell-based; conditions: Homo sapiens
# Protocol: as §3, §4
Structure (SMILES),IC50 [1],IC90 [1],IC50 [2],IC90 [2],IC50 [3],IC90 [3],IC50 [4],IC90 [4],IC50 [5],IC90 [5],IC50 [6],IC90 [6],IC50 (A549 (human lung cancer)),IC90 (A549 (human lung cancer)),IC50 [7],IC90 [7],IC50 [8],IC90 [8],IC50 (MG63 (osteosarcoma)),IC90 (MG63 (osteosarcoma)),other results
COC1=C[C@]23CCCN2CCc2cc4c(cc2[C@@H]3[C@@H]1OC(=O)[C@@](O)(CCCC(C)(C)O)CC(=O)N1CCCCC1C)OCO4 (stereo partly drawn) [BS-HH-037],3.69 µg/mL,> 16 µg/mL,0.41 µg/mL,> 16 µg/mL,> 16 µg/mL,> 16 µg/mL,1.58 µg/mL,16 µg/mL,0.7 µg/mL,5.08 µg/mL,1 µg/mL,9.86 µg/mL,1.96 µg/mL,> 16 µg/mL,1.5 µg/mL,> 16 µg/mL,16 µg/mL,> 16 µg/mL,1.44 µg/mL,16 µg/mL,IC50 [9]: 0.9 µg/mL; IC90 [9]: 9.29 µg/mL; IC50 [10]: 6.47 µg/mL; IC90 [10]: > 16 µg/mL
COC1=C[C@]23CCCN2CCc2cc4c(cc2[C@@H]3[C@@H]1OC(=O)[C@@](O)(CCCC(C)(C)O)CC(=O)Nc1nccs1)OCO4 [BS-HH-008],13.4 µg/mL,> 16 µg/mL,4.69 µg/mL,16 µg/mL,> 16 µg/mL,> 16 µg/mL,5 µg/mL,> 16 µg/mL,5.62 µg/mL,12.8 µg/mL,11 µg/mL,> 16 µg/mL,16 µg/mL,> 16 µg/mL,> 16 µg/mL,> 16 µg/mL,11.2 µg/mL,> 16 µg/mL,15.5 µg/mL,> 16 µg/mL,IC50 ([11]; read-out: IC50): 4.44 µg/mL; IC90 ([11]; read-out: IC90): 16 µg/mL; IC50 [10]: > 16 µg/mL; IC90 [10]: > 16 µg/mL
CCN1CCN(C(=O)C[C@](O)(CCCC(C)(C)O)C(=O)O[C@@H]2C(OC)=C[C@]34CCCN3CCc3cc5c(cc3[C@H]24)OCO5)CC1 [BS-HH-041],3.2 µg/mL,> 16 µg/mL,0.89 µg/mL,> 16 µg/mL,> 16 µg/mL,> 16 µg/mL,2.79 µg/mL,15 µg/mL,1.85 µg/mL,16 µg/mL,1.96 µg/mL,13.4 µg/mL,8.11 µg/mL,> 16 µg/mL,0.9 µg/mL,> 16 µg/mL,16 µg/mL,> 16 µg/mL,1.97 µg/mL,> 16 µg/mL,IC50 [9]: 1 µg/mL; IC90 [9]: 11.8 µg/mL; IC50 [10]: 6.35 µg/mL; IC90 [10]: > 16 µg/mL
COCCCNC(=O)C[C@](O)(CCCC(C)(C)O)C(=O)O[C@@H]1C(OC)=C[C@]23CCCN2CCc2cc4c(cc2[C@H]13)OCO4 [BS-HH-028],6.52 µg/mL,> 16 µg/mL,3.56 µg/mL,15 µg/mL,> 16 µg/mL,> 16 µg/mL,2.75 µg/mL,13 µg/mL,2.59 µg/mL,7.52 µg/mL,4.92 µg/mL,> 16 µg/mL,16 µg/mL,> 16 µg/mL,13.1 µg/mL,> 16 µg/mL,5.93 µg/mL,> 16 µg/mL,6.8 µg/mL,> 16 µg/mL,IC50 [9]: 8.62 µg/mL; IC90 [9]: 24.3 µg/mL; IC50 [10]: 16 µg/mL; IC90 [10]: > 16 µg/mL
